Test results reported in US4788216A, “Medicinal uses for podophyllotoxins” (Conpharm AB, priority 1984, dated 1988).
Converted amounts (≈) assume the structure as drawn. “And” between values parts separate entries of the source, which are not always exact repeats. Equal values may be shown once.

Tests used:
[1] = system: Plasmodium falciparum; experiment: Clinical effect against malaria (number of asexual parasites in blood of patients); type: in vivo; details: individual patient
Protocol: The effect against malaria was determined clinically on a number of patients which had been attacked by the malaria parasite Plasmodium falciparum. Podophyllotoxin was administered in two different doses and the number of parasites in the patients was determined for each day and was noted as the number of asexual parasites per cubic millimeter of blood.

[2] = system: formation of specific antibodies; experiment: Antibody formation in mice injected with sheep erythrocytes; type: in vivo; details: daily injections after administration of erythrocytes, spleen
Text: Injection with a suspension of erythrocytes from sheep to mice causes formation of specific antibodies against this antigen. This reaction which normally is very strong requires a cooperation between different cell types, substantially macrophages, T and B lymphocytes, and can easily be detected in the spleen of the test animals.

[3] = system: psoriasis vulgaris lesions; experiment: Clinical investigation in psoriasis vulgaris patients, topical cream; type: in vivo, human (patients)
Protocol: A clinical investigation was carried out with totally 152 patients of an age between 19 and 71 years (mean value 46.1 years) afflicted with psoriasis vulgaris. The patients were divided into three groups of 50, 51 and 51 persons who were treated topically with a cream containing 0.1, 0.25 and 0.5% of podophyllotoxin, respectively. Each patient was treated only on a specific attacked area of the body while other attacked areas served as comparison. The severity of the attack was judged at the start of the treatment, and 2, 4, 8, 12 and 16 weeks after this, no treatment being carried out during the last period of 4 weeks. The investigation was carried out with double blind technique and the results were treated statistically.

[4] = Acute toxicity in rabbit; details: in vivo, topical or ocular, dermal
Text: (§1) The acute toxicity of podophyllotoxin has been determined on various test animals and by various ways of administration.

[5] = Acute toxicity in mouse; details: in vivo
Text: as §1

[6] = system: proliferation of cells; experiment: In vitro proliferation of cells caused by mitogenic lectins or cells from a non-related individual; type: cell-based
[7] = Solubility in water; type: physicochemical; details: in its pure state
Text: The compound podophyllotoxin has the following physical data in its pure state: […]

[8] = system: cytotoxic cells; experiment: In vitro development of cytotoxic cells; type: cell-based
[9] = Acute toxicity in rat; details: in vivo
Text: as §1

With `COc1cc([C@@H]2c3cc4c(cc3[C@H](O)[C@H]3COC(=O)[C@H]23)OCO4)cc(OC)c1OC` [podophyllotoxin] the “Remarks (outcome)” value ([1]; 1.5 mg per day (t.i.d.)) was “Marked reduction of parasites”, the “number of asexual parasites, day 0” value ([1]; 1.5 mg per day (t.i.d.)) was 660 asexual parasites per cubic mi and 13710 asexual parasites per cubic mi and 1410 asexual parasites per cubic mi and 960 asexual parasites per cubic mi and 13080 asexual parasites per cubic mi and 4380 asexual parasites per cubic mi and the “number of asexual parasites, day 1” value ([1]; 1.5 mg per day (t.i.d.)) was 180 asexual parasites per cubic mi and 3000 asexual parasites per cubic mi and 360 asexual parasites per cubic mi and 90 asexual parasites per cubic mi and 510 asexual parasites per cubic mi and 1560 asexual parasites per cubic mi. For the same compound, the “number of asexual parasites, day 2” value ([1]; 1.5 mg per day (t.i.d.)) was 0 asexual parasites per cubic mi and 120 asexual parasites per cubic mi and 180 asexual parasites per cubic mi, the “number of asexual parasites, day 3” value ([1]; 1.5 mg per day (t.i.d.)) was 0 asexual parasites per cubic mi and 660 asexual parasites per cubic mi and the “number of asexual parasites, day 4” value ([1]; 1.5 mg per day (t.i.d.)) was 180 asexual parasites per cubic mi and 0 asexual parasites per cubic mi and 60 asexual parasites per cubic mi and 1400 asexual parasites per cubic mi. For the same compound, the “number of asexual parasites, day 5” value ([1]; 1.5 mg per day (t.i.d.)) was 270 asexual parasites per cubic mi and 0 asexual parasites per cubic mi and 60 asexual parasites per cubic mi, the “number of asexual parasites, day 6” value ([1]; 1.5 mg per day (t.i.d.)) was 270 asexual parasites per cubic mi and 0 asexual parasites per cubic mi and 60 asexual parasites per cubic mi and the “number of asexual parasites, day 7” value ([1]; 1.5 mg per day (t.i.d.)) was 270 asexual parasites per cubic mi and 0 asexual parasites per cubic mi and 60 asexual parasites per cubic mi. For the same compound, the “Remarks (outcome)” value ([1]; 3.0 mg per day (t.i.d.)) was “Cured”, the “number of asexual parasites, day 0” value ([1]; 3.0 mg per day (t.i.d.)) was 2880 asexual parasites per cubic mi and 2060 asexual parasites per cubic mi and 6080 asexual parasites per cubic mi and 320 asexual parasites per cubic mi and the “number of asexual parasites, day 1” value ([1]; 3.0 mg per day (t.i.d.)) was 2520 asexual parasites per cubic mi and 1600 asexual parasites per cubic mi and 2000 asexual parasites per cubic mi and 60 asexual parasites per cubic mi. For the same compound, the “number of asexual parasites, day 2” value ([1]; 3.0 mg per day (t.i.d.)) was 60 asexual parasites per cubic mi and 0 asexual parasites per cubic mi, the “number of asexual parasites, day 3” value ([1]; 3.0 mg per day (t.i.d.)) was 540 asexual parasites per cubic mi and 0 asexual parasites per cubic mi and the “number of asexual parasites, day 4” value ([1]; 3.0 mg per day (t.i.d.)) was 600 asexual parasites per cubic mi and 0 asexual parasites per cubic mi. For the same compound, the “number of asexual parasites, day 5” value ([1]; 3.0 mg per day (t.i.d.)) was 600 asexual parasites per cubic mi and 0 asexual parasites per cubic mi, the “number of asexual parasites, day 6” value ([1]; 3.0 mg per day (t.i.d.)) was 0 asexual parasites per cubic mi and the “number of asexual parasites, day 7” value ([1]; 3.0 mg per day (t.i.d.)) was 0 asexual parasites per cubic mi. The “inhibition of antibody formation against sheep erythrocytes” value [2] was “inhibited in a dose-dependent way”, the “reversibility of secondary effects” value ([3]; after interruption of the treatment) was “disappeared after interruption of the treatment” and the “difference between treated and untreated lesions” value ([3]; after two weeks and in the course of the treatment) was “statistically significant difference”. The “patients free from symptoms or with only mild ones” value ([3]; at the fifth control, untreated lesions: only two patients) was 70-75%, the “improvement of severity of treated lesions with associated symptoms” value ([3]; cream 0.1, 0.25 and 0.5%, all three dosage levels) was “statistically significant improvements” and the “patients reporting secondary effects such as rash” value ([3]; of 152 patients, three cream strengths together) was 11 patients. The “deterioration of severity or symptoms of treated lesions in follow-up” value ([3]; weeks 13 to 16, no treatment) was “no deterioration occurred”, the LD50 [4] was 200 mg/kg and the LD50 ([5]; iv) was 20 mg/kg. For the same compound, the LD50 ([5]; po) was 100 mg/kg, the “time to recover complete reactivity to the stimuli” value ([6]; cells treated with podophyllotoxin) was at most 24 h and the “effects at markedly lower doses (proliferation)” value ([6]; in vitro, markedly lower doses) was “at markedly lower doses these effects increase”. The “inhibition of proliferation of cells” value ([6]; in vitro, mitogenic lectins or cells from a non-related individual) was “inhibits the proliferation of cells”, the solubility [7] was 120 µg/mL (≈ 290 µM) and the “inhibition of development of cytotoxic cells” value [8] was “inhibits the development of cytotoxic cells”. For the same compound, the “effects at markedly lower doses (development of cytotoxic cells)” value ([8]; markedly lower doses) was “at markedly lower doses these effects increase”, the LD50 ([9]; iv) was 10 mg/kg and the LD50 ([9]; topical or ocular, dermal) was 500 mg/kg.
